# Data from patent US4175125A, “Method for treating methicillin resistant staphylococcus aureus” (Eli Lilly and Company, priority 1978, dated 1979).
# How the values were obtained:
# [1] = test system: Staphylococcus aureus cultures; experiment: Agar dilution susceptibility test, phenylthioacetyl cephalosporins vs methicillin resistant S. aureus (Example 9); type: cell-based; conditions: for MIC: Staphylococcus aureus, read-out: MIC
# Text: This example compares the antibiotic activities of three known compounds, methicillin, cephalothin, and cephaloridine, with three compounds from the above examples, in terms of minimum inhibitory concentration (MIC) values in microgram/milliliter units against various isolates of Staphylococcus aureus cultures. The culture numbers and the procedures used to obtain the reported data are disclosed by W. E. Wick and D. A. Preston in their article "Heterogeneous Methicillin-Resistant Staphylococcus Aureus" which appeared in Progress in Antimicrobial And Anticancer Chemotherapy, Proceedings of the 6th International Congress of Chemotherapy, Volume, 1, U. of Tokyo Press, Tokyo, (1970). In these agardilution susceptibility tests, the inocula were diluted to 10^3 bacteria per spot. Cultures 3055 (benzylpenicillin sensitive) and H232 (benzylpenicillin-resistant) are controls. The remaining cultures are methicillin-resistant, and, except for 3136, are clinical isolates. Culture 3136 is a 4th transfer laboratory selected mutant.
# [2] = test system: Staphylococcus aureus cultures; experiment: Broth dilution MIC in trypticase soy broth, low and high NaCl (Example 10); type: cell-based; conditions: Staphylococcus aureus, TSB, read-out: MIC
# Procedure: This example compares the antibiotic activities of methicillin, cephalothin and cephaloridine with the compounds of Examples 1, 2 and 3, in broth dilution tests. The MIC values, in μg/ml., are against the same Staphylococcus aureus cultures described in Example 9, except that in this example the cultures were grown in trypticase soy broth (TSB). Growing the cultures in two broth cultures, one having a low (0.5 percent) sodium chloride content and one having a high (5.0 percent) sodium chloride content is said to assist in identifying the methicillin-resistant cultures from those which are not methicillin-resistant. […] See Chabbert, Y. A., 1967 Postgrad. Med. J., 43 (suppl); 40-46. One expects that similar changes in MIC values for this type of culture to other β-lactam antibiotics, e.g., various penicillins and cephalosporins, to have similar implications. […] That is, methicillin-resistant S.aureus cultures are susceptible to the cephalosporin antibiotics used in this invention.
# [3] = culture 3055 (control, benzylpenicillin sensitive), table part marked b
# [4] = culture 3055 (control, benzylpenicillin sensitive), table part marked c
# [5] = culture 3130, table part marked b
# [6] = culture 3130, table part marked c
# [7] = culture 3131, table part marked b
# [8] = culture 3131, table part marked c
# [9] = culture 3132, table part marked b
# [10] = culture 3132, table part marked c
# [11] = culture 3133, table part marked b
# [12] = culture 3133, table part marked c
# [13] = culture 3134, table part marked b
# [14] = culture 3134, table part marked c
# [15] = culture 3135, table part marked b
# [16] = culture 3135, table part marked c
# [17] = culture 3136, table part marked b
# [18] = culture 3136, table part marked c
# [19] = culture 3137, table part marked b
# [20] = culture 3137, table part marked c
# [21] = culture 3138, table part marked b
# [22] = culture 3138, table part marked c
# [23] = culture 3139, table part marked b
# [24] = culture 3139, table part marked c
# [25] = culture (Seattle) 966, table part marked b
# [26] = culture (Seattle) 966, table part marked c
# [27] = culture H232 (control, benzylpenicillin-resistant), table part marked b
# [28] = culture H232 (control, benzylpenicillin-resistant), table part marked c
# [29] = culture Kavarmark 1138501, table part marked b
# [30] = culture Kavarmark 1138501, table part marked c
# [31] = culture S61, table part marked b
# [32] = culture S61, table part marked c
# [33] = culture 3132 (first column so headed), table part marked b
# [34] = culture 3132 (first column so headed), table part marked c
# [35] = culture 3132 (second column so headed), table part marked b
# [36] = culture 3132 (second column so headed), table part marked c
# [37] = culture Kavarnick 1138501, table part marked b
# [38] = culture Kavarnick 1138501, table part marked c
smiles,measurement,setting,value
"CC(=O)OCC1=C(C(=O)O)N2C(=O)C(NC(=O)CSc3cc(Cl)ccc3Cl)C2SC1 (stereo not drawn) [Example 2, 7-(2,5-Dichlorophenylthioacetamido)-cephalosporanic acid]",MIC,[1]; [3],< 0.06 µg/mL
same,MIC,[1]; [4],< 0.06 µg/mL
same,MIC,[1]; [5],0.5 µg/mL
same,MIC,[1]; [6],2 µg/mL
same,MIC,[1]; [7],0.5 µg/mL
same,MIC,[1]; [8],1 µg/mL
same,MIC,[1]; [9],0.5 µg/mL
same,MIC,[1]; [10],0.5 µg/mL
same,MIC,[1]; [11],1 µg/mL
same,MIC,[1]; [12],2 µg/mL
same,MIC,[1]; [13],1 µg/mL
same,MIC,[1]; [14],2 µg/mL
same,MIC,[1]; [15],0.5 µg/mL
same,MIC,[1]; [16],1 µg/mL
same,MIC,[1]; [17],0.5 µg/mL
same,MIC,[1]; [18],1 µg/mL
same,MIC,[1]; [19],2 µg/mL
same,MIC,[1]; [20],4 µg/mL
same,MIC,[1]; [21],1 µg/mL
same,MIC,[1]; [22],1 µg/mL
same,MIC,[1]; [23],1 µg/mL
same,MIC,[1]; [24],0.5 µg/mL
same,MIC,[1]; [25],0.5 µg/mL
same,MIC,[1]; [26],0.25 µg/mL
same,MIC,[1]; [27],< 0.06 µg/mL
same,MIC,[1]; [28],< 0.06 µg/mL
same,MIC,[1]; [29],0.5 µg/mL
same,MIC,[1]; [30],1 µg/mL
same,MIC,[1]; [31],0.5 µg/mL
same,MIC,[1]; [32],1 µg/mL
same,"effectiveness in in vitro tests vs methicillin, cephalothin and cephaloridine",[1]; various cultures of methicillin-resistant Staphylococcus aureus,"substantially more effective than methicillin, cephalothin, and cephaloridine"
same,MIC,"[2]; culture 3055 (control), table part marked b",0.06 µg/mL
same,MIC,"[2]; culture 3055 (control), table part marked c",0.06 µg/mL
same,MIC,[2]; [5],1 µg/mL
same,MIC,[2]; [6],8 µg/mL
same,MIC,[2]; [7],< 0.5 µg/mL
same,MIC,[2]; [8],2 µg/mL
same,MIC,[2]; [33],< 0.5 µg/mL
same,MIC,[2]; [34],2 µg/mL
same,MIC,[2]; [35],< 0.5 µg/mL
same,MIC,[2]; [36],2 µg/mL
same,MIC,[2]; [13],2 µg/mL
same,MIC,[2]; [14],4 µg/mL
same,MIC,[2]; [15],< 0.5 µg/mL
same,MIC,[2]; [16],2 µg/mL
same,MIC,[2]; [17],0.25 µg/mL
same,MIC,[2]; [18],4 µg/mL
same,MIC,[2]; [19],2 µg/mL
same,MIC,[2]; [20],4 µg/mL
same,MIC,[2]; [21],2 µg/mL
same,MIC,[2]; [22],2 µg/mL
same,MIC,[2]; [23],0.5 µg/mL
same,MIC,[2]; [24],< 0.5 µg/mL
same,MIC,[2]; [25],0.5 µg/mL
same,MIC,[2]; [26],2 µg/mL
same,MIC,"[2]; culture H232 (control), table part marked b",0.12 µg/mL
same,MIC,"[2]; culture H232 (control), table part marked c",0.25 µg/mL
same,MIC,[2]; [37],0.5 µg/mL
same,MIC,[2]; [38],2 µg/mL
same,MIC,[2]; [31],0.5 µg/mL
same,MIC,[2]; [32],2 µg/mL
same,MIC,"[2]; culture S, table part marked b",0.5 µg/mL
same,MIC,"[2]; culture S, table part marked c",2 µg/mL
"O=C(Cc1cccs1)N[C@@H]1C(=O)N2C(C(=O)[O-])=C(C[n+]3ccccc3)CS[C@H]12 [Cephaloridine, cephaloridine, reference compound]",MIC,[1]; [3],< 0.06 µg/mL
same,MIC,[1]; [4],0.25 µg/mL
same,MIC,[1]; [5],4 µg/mL
same,MIC,[1]; [6],8 µg/mL
same,MIC,[1]; [7],1 µg/mL
same,MIC,[1]; [8],16 µg/mL
same,MIC,[1]; [9],2 µg/mL
same,MIC,[1]; [10],2 µg/mL
same,MIC,[1]; [11],4 µg/mL
same,MIC,[1]; [12],16 µg/mL
same,MIC,[1]; [13],8 µg/mL
same,MIC,[1]; [14],16 µg/mL
same,MIC,[1]; [15],1 µg/mL
same,MIC,[1]; [16],8 µg/mL
same,MIC,[1]; [17],0.25 µg/mL
same,MIC,[1]; [18],16 µg/mL
same,MIC,[1]; [19],8 µg/mL
same,MIC,[1]; [20],32 µg/mL
same,MIC,[1]; [21],8 µg/mL
same,MIC,[1]; [22],16 µg/mL
same,MIC,[1]; [23],1 µg/mL
same,MIC,[1]; [24],4 µg/mL
same,MIC,[1]; [25],0.25 µg/mL
same,MIC,[1]; [26],0.25 µg/mL
same,MIC,[1]; [27],< 0.06 µg/mL
same,MIC,[1]; [28],< 0.06 µg/mL
same,MIC,[1]; [29],1 µg/mL
same,MIC,[1]; [30],4 µg/mL
same,MIC,[1]; [31],4 µg/mL
same,MIC,[1]; [32],16 µg/mL
same,MIC,[2]; [7],2 µg/mL
same,MIC,[2]; [8],16 µg/mL
same,MIC,[2]; [33],2 µg/mL
same,MIC,[2]; [34],16 µg/mL
same,MIC,[2]; [35],1 µg/mL
same,MIC,[2]; [36],16 µg/mL
same,MIC,[2]; [15],2 µg/mL
same,MIC,[2]; [16],16 µg/mL
same,MIC,[2]; [17],< 0.5 µg/mL
same,MIC,[2]; [18],16 µg/mL
same,MIC,[2]; [19],8 µg/mL
same,MIC,[2]; [20],32 µg/mL
same,MIC,[2]; [21],4 µg/mL
same,MIC,[2]; [22],16 µg/mL
same,MIC,[2]; [23],1 µg/mL
same,MIC,[2]; [24],8 µg/mL
same,MIC,[2]; [25],4 µg/mL
same,MIC,[2]; [26],8 µg/mL
same,MIC,[2]; [37],2 µg/mL
same,MIC,[2]; [38],16 µg/mL
same,MIC,[2]; [31],4 µg/mL
same,MIC,[2]; [32],64 µg/mL
same,MIC,"[2]; culture S, table part marked b",4 µg/mL
same,MIC,"[2]; culture S, table part marked c",16 µg/mL
